Values quoted from earlier work as cited in PubChem BioAssay AID1259409 (Chemical Carcinogenesis Research Information System (CCRIS), 2018).

Test system: rodent chemically induced tumor inhibition, incidence and multiplicity
Assay: CCRIS tumor inhibitor studies
Conditions: Dose [Inhibitor]: 0

For `CC(C)C(=O)Nc1ccc([N+](=O)[O-])c(C(F)(F)F)c1`, the “tumour outcome (control, treated, inhibition, significance)” value (Carcinogen: DIETHYLNITROSAMINE, 55-18-5, 0.5 MG/G IN DIET FOR 3 WK BEGINNING AT 25 WK OF AGE (STUDY DURATION: 52 WK), Route [Inhibitor]: ORAL, Species: MOUSE, Strain/Sex: B6C3F1/MALE, Target Tissue: Type of Lesion: LIVER: TUMOR, Dose [Carcinogen]: 0.2 MICROMOLAR/G BW ONCE AT 6 WK OF AGE, Promoter: NONE USED) is listed as 81%, 50%, 38%, p<0.05, the “tumour outcome (control, treated, inhibition, significance)” value (Carcinogen: DIETHYLNITROSAMINE, 55-18-5, 0.5 MG/G IN DIET FOR 3 WK POST CARCINOGEN DOSE (STUDY DURATION: 52 WK), Route [Inhibitor]: ORAL, Species: MOUSE, Strain/Sex: B6C3F1/MALE, Target Tissue: Type of Lesion: LIVER: TUMOR, Dose [Carcinogen]: 0.2 MICROMOLAR/G BW ONCE AT 6 WK OF AGE, Promoter: NONE USED) is listed as 81%, 63%, 22%, not significant and the “tumour outcome (control, treated, inhibition, significance)” value (Carcinogen: DIETHYLNITROSAMINE, 55-18-5, 0.5 MG/G IN DIET FOR 27 WK BEGINNING AT 25 WK OF AGE (STUDY DURATION: 52 WK), Route [Inhibitor]: ORAL, Species: MOUSE, Strain/Sex: B6C3F1/MALE, Target Tissue: Type of Lesion: LIVER: TUMOR, Dose [Carcinogen]: 0.2 MICROMOLAR/G BW ONCE, Promoter: NONE USED) is listed as 81%, 53%, 35%, p<0.05. For the same molecule, the “tumour outcome (control, treated, inhibition, significance)” value (Carcinogen: DIETHYLNITROSAMINE, 55-18-5, 0.5 MG/G IN DIET FOR DURATION OF STUDY (STUDY DURATION: 52 WK), Route [Inhibitor]: ORAL, Species: MOUSE, Strain/Sex: B6C3F1/MALE, Target Tissue: Type of Lesion: LIVER: TUMOR, Dose [Carcinogen]: 0.2 MICROMOLAR/G BW ONCE AT 6 WK OF AGE, Promoter: NONE USED) was 81%, 97%, -20%, p<0.05, the “tumour outcome (control, treated, inhibition, significance)” value (Carcinogen: N-BUTYL-N-(4-HYDROXYBUTYL)NITROSAMINE, 3817-11-6, 50 MG/KG 2/WK FOR 11 WK BEGINNING POST CARCINOGEN TREATMENT (STUDY DURATION:21WK), Route [Inhibitor]: ORAL, Species: RAT, Strain/Sex: WISTAR/MALE, Target Tissue: Type of Lesion: URINARY BLADDER: CARCINOMA, Dose [Carcinogen]: 0.05% IN DRINKING WATER FOR 10 WK, Promoter: NONE USED) was 15/17 (88%), 12/16, 75%, 15%, not significant and the “tumour outcome (control, treated, inhibition, significance)” value (Carcinogen: N-BUTYL-N-(4-HYDROXYBUTYL)NITROSAMINE, 3817-11-6, 50 MG/KG 2/WK FOR 13 WK BEGINNING POST CARCINOGEN TREATMENT (STUDY DURATION: 20 WK), Route [Inhibitor]: ORAL, Species: RAT, Strain/Sex: WISTAR/MALE, Target Tissue: Type of Lesion: URINARY BLADDER: CARCINOMA, Dose [Carcinogen]: 0.05% IN DRINKING WATER FOR 7 WK, Promoter: NONE USED) was 25/39 (64%), 10/21 (48%), 25%, not significant. For the same molecule, the “tumour outcome (control, treated, inhibition, significance)” value (Carcinogen: N-BUTYL-N-(4-HYDROXYBUTYL)NITROSAMINE, 3817-11-6, 200 MG/KG 2/WK FOR 13 WK BEGINNING POST CARCINOGEN TREATMENT (STUDY DURATION:20 WK), Route [Inhibitor]: ORAL, Species: RAT, Strain/Sex: WISTAR/MALE, Target Tissue: Type of Lesion: URINARY BLADDER: CARCINOMA, Dose [Carcinogen]: 0.05% IN DRINKING WATER FOR 7 WK, Promoter: NONE USED) was 25/39 (64%), 5/17 (29%), 55%, p<0.05 and the “tumour outcome (control, treated, inhibition, significance)” value (Carcinogen: N-NUTYL-N-(4-HYDROXYBUTYL)NITROSAMINE, 3817-11-6, 100 MG/KG 2/WK FOR 13 WK BEGINNING POIST CARCINOGEN TREATMENT (STUDY DURATION: 20 WK), Route [Inhibitor]: ORAL, Species: RAT, Strain/Sex: WISTAR/MALE, Target Tissue: Type of Lesion: URINARY BLADDER: CARCINOMA, Dose [Carcinogen]: 0.05% IN DRINKING WATER FOR 7 WK, Promoter: NONE USED) was 25/39 (64%), 7/17 (41%), 36%, not significant.
For `Cc1cccc(C(=O)/C=C/c2cccc(O)c2)c1`, the “tumour outcome (control, treated, inhibition, significance)” value (Carcinogen: 7,12-DIMETHYLBENZ[A]ANTHRACENE, 57-97-6, 1.62 MICROMOLAR 2/WK FOR 18 WK APPLIED SIMULTANEOUSLY WITH PROMOTER DOSE (STUDY DURATION: 18 WK), Route [Inhibitor]: DERMAL, Species: MOUSE, Strain/Sex: ICR/FEMALE, Target Tissue: Type of Lesion: SKIN: TUMOR, Dose [Carcinogen]: 100 UG ONCE, Promoter: 12-O-TETRADECANOYLPHORBOL-13-ACETATE, 16561-29-8) is given as 90%, 20%, 78%, not calculated.
In the case of `CC(C)=C1C=C(C(C)C)C(O)CC1` (centres undefined), the “tumour outcome (control, treated, inhibition, significance)” value (Carcinogen: 7,12-DIMETHYLBENZ[A]ANTHRACENE, 57-97-6, 12 NMOL PER REPEATED APPLICATION FOR 20 WK (STUDY DURATION: 20 WK), Route [Inhibitor]: DERMAL, Species: MOUSE, Strain/Sex: CD-1/FEMALE, Target Tissue: Type of Lesion: SKIN: TUMOR, Dose [Carcinogen]: 100 UG ONCE, Promoter: OKADAIC ACID, 78111-17-8) is given as 87%, 33%, 62%, not calculated.
For `CCCc1cc(OC)c2c(c1)OCO2`, the “tumour outcome (control, treated, inhibition, significance)” value (Carcinogen: BENZO[A]PYRENE, 50-32-8, 10 MG SUSPENDED IN 0.3 ML COTTONSEED OIL 3/WK FOR 4 WK ON DAYS OTHER THAN THE CARCINOGEN TREATMENT, 3 ADDITIONAL DOSE, Route [Inhibitor]: GAVAGE, Species: MOUSE, Strain/Sex: STRAIN-A/FEMALE, Target Tissue: Type of Lesion: FORESTOMACH: TUMOR, Dose [Carcinogen]: 1 MG IN 0.3 ML COTTONSEED OIL 2/WK FOR 4 WK, Promoter: NONE USED) is listed as 12/17 (71%), 12/19 (63%), 11%, not significant and the “tumour outcome (control, treated, inhibition, significance)” value (Carcinogen: BENZO[A]PYRENE, 50-32-8, 10 MG SUSPENDED IN 0.3 ML COTTONSEED OIL 3/WK FOR 4 WK ON DAYS OTHER THAN THE CARCINOGEN TREATMENT, 3 ADDITIONAL DOSE, Route [Inhibitor]: GAVAGE, Species: MOUSE, Strain/Sex: STRAIN-A/FEMALE, Target Tissue: Type of Lesion: LUNG: TUMOR, Dose [Carcinogen]: 1 MG IN 0.3 ML COTTONSEED OIL 2/WK FOR 4 WK, Promoter: NONE USED) is listed as 17/17 (100%), 19/19 (100%), 0%, not significant.
In the case of `CC(C)(c1ccc(O)cc1)c1ccc(O)cc1`, the outcome (Carcinogen: N-NITROSOBIS(2-HYDROXYPROPYL)AMINE, 53609-64-6, 10000 PPM IN DIET FOR 27 WK BEGINNING 9 WK POST CARCINOGEN TREATMENT (STUDY DURATION: 37 WK), Route [Inhibitor]: ORAL, Species: RAT, Strain/Sex: F344/FEMALE, Target Tissue: Type of Lesion: THYROID GLAND: ADENOMA, Dose [Carcinogen]: 2000 MG/KG BW 1 WK POST BILATERAL OVARIECTOMY, Promoter: SULFADIMETHOXINE, 122-11-2) is given as 0/12 (0%), 0/15 (0%), 0%, not significant and the “tumour outcome (control, treated, inhibition, significance)” value (Carcinogen: N-NITROSOBIS(2-HYDROXYPROPYL)AMINE, 53609-64-6, 10000 PPM IN DIET FOR 27 WK BEGINNING 9 WK POST CARCINOGEN TREATMENT (STUDY DURATION: 37 WK), Route [Inhibitor]: ORAL, Species: RAT, Strain/Sex: F344/FEMALE, Target Tissue: Type of Lesion: THYROID GLAND: CARCINOMA, Dose [Carcinogen]: 2000 MG/KG BW 1 WK POST BILATERAL OVARIECTOMY, Promoter: SULFADIMETHOXINE, 122-11-2) is given as 10/12 (83%), 4/15 (27%), 67%, p<0.01.
